Source: PubChem BioAssay (NCI)
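How tested: cells in 96-well plates exposed to compound for 48 hours at five concentrations. TGI marks complete inhibition of growth.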

Experiments:
Experiment in all cases: NCI-60 cell line screen, 48 h
[1] = tested on: DU-145 prostate
[2] = tested on: LOX IMVI melanoma
[3] = tested on: CCRF-CEM leukemia
[4] = tested on: HOP-92 NSCLC
[5] = tested on: SNB-75 CNS
[6] = tested on: IGROV1 ovarian
[7] = tested on: SR leukemia
[8] = tested on: HT29 colon
[9] = tested on: A549 NSCLC
[10] = tested on: SF-539 CNS
[11] = tested on: KM12 colon
[12] = tested on: SF-295 CNS
[13] = tested on: OVCAR-5 ovarian
[14] = tested on: CAKI-1 renal
[15] = tested on: K-562 leukemia
[16] = tested on: SK-MEL-28 melanoma
[17] = tested on: A498 renal
[18] = tested on: T-47D breast

SMILES | TGI [1] | TGI [2] | TGI [3] | TGI [4] | TGI [5] | TGI [6] | TGI [7] | TGI [8] | TGI [9] | TGI [10] | TGI [11] | TGI [12] | TGI [13] | TGI [14] | TGI [15] | TGI [16] | TGI [17] | TGI [18]
COC(=O)c1ccc2c(c1)CC1(C2)Cc2cc3c(c(C(=O)OC)c2C1)CCCC3 (stereo unspecified) | > 100 µM | > 100 µM | > 100 µM | > 100 µM | > 100 µM | > 100 µM | > 100 µM | > 100 µM | > 100 µM | > 100 µM | > 100 µM | > 100 µM | > 100 µM | > 100 µM | > 100 µM | > 100 µM | > 100 µM | > 100 µM
Cn1c(=O)n2n(c1=O)Cc1cccc3cccc(c13)C2 | > 100 µM | > 100 µM | > 100 µM | > 100 µM | > 100 µM |  | > 100 µM | > 100 µM | > 100 µM | > 100 µM | > 100 µM | > 100 µM | > 100 µM | > 100 µM | > 100 µM | > 100 µM | > 100 µM | > 100 µM
CN(C)CCN1C(=O)CC[C@@]2(C)C1=CC[C@@H]1[C@@H]2CC[C@@]2(C)[C@H]1CC[C@]2(C)O | > 100 µM | > 100 µM | > 100 µM | > 100 µM | > 100 µM | > 100 µM | > 100 µM | > 100 µM | > 100 µM | > 100 µM | > 100 µM | > 100 µM | > 100 µM | > 100 µM | > 100 µM | > 100 µM | > 100 µM | > 100 µM
O=C(NCCN1C(=O)CN=C(c2ccc(Cl)cc2)c2cc(Cl)ccc21)OCc1ccccc1 | 37.7 µM | 33.9 µM | 63.1 µM | 31.2 µM | 42.2 µM | 37.8 µM | 33.3 µM | 31.8 µM | 32.7 µM | 38.2 µM | 32.4 µM | 29.4 µM | 49.7 µM | 31.9 µM | 31.1 µM | > 100 µM | 24.5 µM | > 100 µM
O=C(c1ccc(Cl)cc1Cl)N(Cc1cccnc1)C(=S)N(Cc1cccnc1)C(=O)c1ccc(Cl)cc1Cl | 13 µM | 16.7 µM | > 100 µM | 12 µM | 14 µM |  | > 100 µM | 5.52 µM | 38 µM | 4.43 µM | 18.8 µM | 41.5 µM | 23.2 µM | 34.4 µM | > 100 µM | 33.7 µM | 24.4 µM | 45.7 µM
Cc1cc(C)c(S(=O)(=O)N[C@@H](/C=C(\Br)CO)C(C)C)c(C)c1 | > 100 µM | 36.3 µM | 90.1 µM | 75.5 µM | > 100 µM | > 100 µM | 68.8 µM | > 100 µM | > 100 µM | > 100 µM | > 100 µM | > 100 µM | > 100 µM | > 100 µM | 50.4 µM | > 100 µM | 68 µM | 68.4 µM
CCOc1cc(/C=N\N(C)C)cc(/C=N\N(C)C)c1O | > 100 µM | 79.5 µM | > 100 µM | 49.7 µM | 77.7 µM |  | > 100 µM | > 100 µM | > 100 µM | 65.4 µM | > 100 µM | > 100 µM | > 100 µM | 46.8 µM | > 100 µM | > 100 µM | > 100 µM | > 100 µM
COC(=O)C1Cc2c([nH]c3ccccc23)C(c2cccc(O)c2)N1 (stereo unspecified) | 55.3 µM | > 100 µM | 43.2 µM | 79.9 µM | 74.3 µM | > 100 µM | 76.1 µM | 83.4 µM | > 100 µM | > 100 µM | > 100 µM | > 100 µM | 82.9 µM | > 100 µM | > 100 µM | 73.4 µM | > 100 µM | > 100 µM
Cc1nc(-c2ccccc2)c(C)n2c1nc1ccccc12 | > 100 µM | > 100 µM | > 100 µM | 47.9 µM | 66.3 µM | > 100 µM | 56.2 µM | > 100 µM | > 100 µM | > 100 µM | > 100 µM | > 100 µM | > 100 µM | > 100 µM | > 100 µM | > 100 µM | > 100 µM | 45.3 µM
CN1CCN(c2nc3ccccc3nc2C(=O)c2ccc(Cl)cc2)CC1 | > 100 µM | > 100 µM | > 100 µM | > 100 µM | > 100 µM | > 100 µM | > 100 µM | > 100 µM | > 100 µM | > 100 µM | > 100 µM | > 100 µM | > 100 µM | > 100 µM | > 100 µM | > 100 µM | > 100 µM | > 100 µM
O=C1NCC2(CCNCC2)N1c1ccccc1 | > 100 µM | > 100 µM | > 100 µM | > 100 µM | > 100 µM | > 100 µM | > 100 µM | > 100 µM | > 100 µM | > 100 µM | > 100 µM | > 100 µM | > 100 µM | > 100 µM | > 100 µM | > 100 µM | > 100 µM | > 100 µM
Clc1ccccc1/C=C/c1nsc(/C=C/c2ccccc2Cl)n1 | > 100 µM | > 100 µM | > 100 µM | > 100 µM | > 100 µM | > 100 µM | 55.6 µM | > 100 µM | > 100 µM | > 100 µM | > 100 µM | > 100 µM | > 100 µM | > 100 µM | 48.5 µM | > 100 µM | > 100 µM | 42.8 µM
O=C(O)c1cccc(S(=O)(=O)NN2C(=O)CSC2c2ccccc2)c1 (stereo unspecified) | > 100 µM | > 100 µM | > 100 µM | > 100 µM | > 100 µM | > 100 µM | > 100 µM | > 100 µM | > 100 µM | > 100 µM | > 100 µM | > 100 µM | > 100 µM | > 100 µM | > 100 µM | > 100 µM | > 100 µM | > 100 µM
CC(C)C1CC=NN1C(=O)OC(C)(C)C (stereo unspecified) | > 100 µM | > 100 µM | > 100 µM | > 100 µM | > 100 µM | > 100 µM | > 100 µM | > 100 µM | > 100 µM | > 100 µM | > 100 µM | > 100 µM | > 100 µM | > 100 µM | > 100 µM |  | > 100 µM | > 100 µM
CC(C)(C)c1cc(C(=O)/C=C/c2ccc(O)c(O)c2O)cc(C(C)(C)C)c1O | 35.6 µM | 24.3 µM | 7.84 µM | > 42.6 µM | 12.6 µM | 43.9 µM | 4.67 µM | 27.7 µM | 40.9 µM | 10.2 µM | 11.6 µM | 27.8 µM | 39.1 µM | 15.6 µM | 21.7 µM | 28.1 µM | 34.4 µM | 13.3 µM
COC(=O)[C@@H]1C=C[C@@H](C#N)n2c(=O)n(-c3ccccc3)c(=O)n21 | > 100 µM | 48.4 µM | 51.3 µM | > 100 µM | 79 µM | > 100 µM | 47.4 µM | 93.2 µM |  | 65.3 µM | 73.2 µM | > 100 µM | > 100 µM | > 100 µM | > 100 µM | > 100 µM | > 100 µM | 94.1 µM
CC(NC1=CC(=O)c2ncccc2C1=O)C(O)c1ccccc1 (stereo unspecified) | 16.6 µM | 13.3 µM | > 100 µM | 27.9 µM | 9.6 µM | 16.4 µM | > 100 µM | 28.3 µM | 12.8 µM | 19.7 µM | 24.8 µM | 14.9 µM | 29.3 µM | 16.2 µM | 13.2 µM | 10.9 µM | 27.7 µM | 56 µM
CC(C)Nc1[nH]c(C(=O)c2ccccc2)c(N)c1C(=S)Nc1ccccc1 | > 100 µM | 80.4 µM | > 100 µM | > 100 µM | > 100 µM | > 100 µM | > 100 µM | 91.3 µM | > 100 µM | > 100 µM | > 100 µM | > 100 µM | > 100 µM | > 100 µM | > 100 µM | 35.1 µM | > 100 µM | > 100 µM
O=S(=O)(c1cc(Cl)ccc1Cl)N1CCN(c2ccc(Cl)c(Cl)c2)CC1 | > 100 µM | > 100 µM | > 100 µM | 35.4 µM | 33.1 µM | > 100 µM | > 100 µM | > 100 µM | > 100 µM | 53.5 µM | > 100 µM | 50.5 µM | > 100 µM | 45.3 µM | > 100 µM | > 100 µM | 56.8 µM | > 100 µM
Cc1cccc(/C=N/NC(=S)NCc2ccccn2)n1 | > 100 µM | > 100 µM | > 100 µM | 98.5 µM | 73.6 µM | > 100 µM | > 100 µM | > 100 µM | > 100 µM | 67.9 µM | > 100 µM | > 100 µM | > 100 µM | > 100 µM | > 100 µM | > 100 µM | > 100 µM | > 100 µM
O/N=c1/ccn(O)c2ccccc12 | 7.76 µM | 5.67 µM | 3.34 µM | 8.65 µM | 1.98 µM | 5.12 µM | 55.8 µM | 4.24 µM | 6.74 µM | 2.41 µM | 5.25 µM | 2.9 µM | 14.7 µM | 5.99 µM | > 19.9 µM | 3.16 µM | 1.75 µM | 10.3 µM
CC12CC3CC/C(=N\O)C(C1)C3(N1CCOCC1)C/C2=N/O (stereo unspecified) | > 100 µM | > 100 µM | > 100 µM | > 100 µM | 94.8 µM | > 100 µM | > 100 µM | > 100 µM | > 100 µM | > 100 µM | > 100 µM | > 100 µM | > 100 µM | > 100 µM | > 100 µM | > 100 µM | > 100 µM | > 100 µM
